Where two headings read alike, the source gives them in different places.
System: 280 human cancer cell lines
Experiment: OncoPanel cell proliferation assay (10-day)
Type: cell-based
Conditions: Homo sapiens; for EC50: read-out: Cell Count EC50; for GI50: read-out: Cell Count GI50; for IC50: read-out: Cell Count IC50
[1] = NCI-H292, NCI-H292, Lung - NSCLC
[2] = NCI-H295R, Endocrine - Adrenal gland
[3] = NCI-H441, NCIH441, Lung - NSCLC
[4] = NCI-H460, NCI-H460, Lung - NSCLC
[5] = NCI-H520, NCI-H520, Lung - NSCLC
[6] = NCI-H596, NCI-H596, Lung - NSCLC
[7] = NCI-H661, NCI-H661, Lung - NSCLC
[8] = NTERA-2-cl-D1, NTERA-2 cl.D1, Testis
[9] = OVCAR-3, OVCAR3, Female GU - Ovary
[10] = RPMI-7951, RPMI-7951, Skin (Melanoma)
[11] = SAOS-2, SaOS2, Soft Tissue - Osteosarcoma

CC(C)=CCC[C@H](C)[C@@H]1CC[C@@H](C)c2c1cc(C)c(O)c2O [Compound 4, 7,8-dihydroxyserrulat-14-ene]
EC50 [1]: 9.21 µM
GI50 [1]: 9.19 µM
IC50 [1]: 9.21 µM
EC50 [2]: 25.6 µM
GI50 [2]: 21.6 µM
IC50 [2]: 25.6 µM
EC50 [3]: 4.76 µM
GI50 [3]: > 30 µM
IC50 [3]: > 30 µM
EC50 (NCI-H446, NCIH446, Lung - SCLC): 7.81 µM
GI50 (NCI-H446, NCIH446, Lung - SCLC): 7.62 µM
IC50 (NCI-H446, NCIH446, Lung - SCLC): 7.81 µM
EC50 [4]: 12.2 µM
GI50 [4]: 13 µM
IC50 [4]: 13 µM
EC50 (NCI-H508, NCI-H508, Colon): > 30 µM
GI50 (NCI-H508, NCI-H508, Colon): > 30 µM
IC50 (NCI-H508, NCI-H508, Colon): > 30 µM
EC50 [5]: 20.8 µM
GI50 [5]: 20.6 µM
IC50 [5]: 20.8 µM
EC50 [6]: 28.2 µM
GI50 [6]: > 30 µM
IC50 [6]: > 30 µM
EC50 [7]: 5.94 µM
GI50 [7]: 5.86 µM
IC50 [7]: 5.94 µM
EC50 (NCI-H747, NCI-H747, Colon): 28.1 µM
GI50 (NCI-H747, NCI-H747, Colon): 28.1 µM
IC50 (NCI-H747, NCI-H747, Colon): 28.2 µM
EC50 [8]: 7.41 µM
GI50 [8]: 7.39 µM
IC50 [8]: 7.41 µM
EC50 (OCUG-1, OCUG-1, Liver): 15.6 µM
GI50 (OCUG-1, OCUG-1, Liver): 15.5 µM
IC50 (OCUG-1, OCUG-1, Liver): 15.6 µM
EC50 (OE19, OE19, Head and Neck): 20.7 µM
GI50 (OE19, OE19, Head and Neck): 20.5 µM
IC50 (OE19, OE19, Head and Neck): 20.7 µM
EC50 (OE21, OE21, Head and Neck): 12.7 µM
GI50 (OE21, OE21, Head and Neck): 12.7 µM
IC50 (OE21, OE21, Head and Neck): 12.7 µM
EC50 [9]: 15.6 µM
GI50 [9]: 14.9 µM
IC50 [9]: 15.6 µM
EC50 (PA-1, Female GU - Ovary): 7.89 µM
GI50 (PA-1, Female GU - Ovary): 7.89 µM
IC50 (PA-1, Female GU - Ovary): 7.9 µM
EC50 (PANC-1, PANC-1, Pancreas): 11.7 µM
GI50 (PANC-1, PANC-1, Pancreas): 11.6 µM
IC50 (PANC-1, PANC-1, Pancreas): 11.7 µM
EC50 (PC-3, Prostate): 7.71 µM
GI50 (PC-3, Prostate): 7.64 µM
IC50 (PC-3, Prostate): 7.71 µM
EC50 (PFSK-1, PFSK-1, CNS - Glioma): 3.82 µM
GI50 (PFSK-1, PFSK-1, CNS - Glioma): 3.8 µM
IC50 (PFSK-1, PFSK-1, CNS - Glioma): 3.82 µM
EC50 (PSN1, PSN-1, Pancreas): 5.04 µM
GI50 (PSN1, PSN-1, Pancreas): 5.04 µM
IC50 (PSN1, PSN-1, Pancreas): 5.04 µM
EC50 (RD, Soft Tissue - Sarcoma): 5.19 µM
GI50 (RD, Soft Tissue - Sarcoma): 5.17 µM
IC50 (RD, Soft Tissue - Sarcoma): 5.19 µM
EC50 (RKO, Colon): 12 µM
GI50 (RKO, Colon): 12 µM
IC50 (RKO, Colon): 12 µM
EC50 (RKOE6, RKOE6, Colon): 6.79 µM
GI50 (RKOE6, RKOE6, Colon): 6.76 µM
IC50 (RKOE6, RKOE6, Colon): 6.79 µM
EC50 (RPMI-6666, RPMI 6666, Lymphoma): 23.1 µM
GI50 (RPMI-6666, RPMI 6666, Lymphoma): 23 µM
IC50 (RPMI-6666, RPMI 6666, Lymphoma): 23.1 µM
EC50 [10]: 9.98 µM
GI50 [10]: 9.96 µM
IC50 [10]: 9.98 µM
EC50 (RPMI-8226, RPMI 8226, Myeloma): 3.03 µM
GI50 (RPMI-8226, RPMI 8226, Myeloma): 3.03 µM
IC50 (RPMI-8226, RPMI 8226, Myeloma): 3.04 µM
EC50 (RS4-11, RS4, 11, Leukemia): 4.15 µM
GI50 (RS4-11, RS4, 11, Leukemia): 4.16 µM
IC50 (RS4-11, RS4, 11, Leukemia): 4.23 µM
EC50 (Raji, Lymphoma): 3.92 µM
GI50 (Raji, Lymphoma): 3.92 µM
IC50 (Raji, Lymphoma): 3.92 µM
EC50 (Ramos, Ramos (RA 1), Lymphoma): 4.17 µM
GI50 (Ramos, Ramos (RA 1), Lymphoma): 4.17 µM
IC50 (Ramos, Ramos (RA 1), Lymphoma): 4.17 µM
EC50 [11]: 10.6 µM
GI50 [11]: 10.7 µM
IC50 [11]: 10.7 µM
EC50 (SCC-4, SCC-4, Head and Neck): 15.8 µM
GI50 (SCC-4, SCC-4, Head and Neck): 15.5 µM
IC50 (SCC-4, SCC-4, Head and Neck): 15.8 µM
EC50 (SCC-9, SCC-9, Head and Neck): 16.5 µM
GI50 (SCC-9, SCC-9, Head and Neck): 16.4 µM
IC50 (SCC-9, SCC-9, Head and Neck): 16.5 µM
EC50 (SCC-25, SCC-25, Head and Neck): 25 µM
GI50 (SCC-25, SCC-25, Head and Neck): 25 µM
IC50 (SCC-25, SCC-25, Head and Neck): 25 µM
EC50 (SCaBER, Bladder): 16.9 µM
GI50 (SCaBER, Bladder): 16.8 µM
